# According to article PMC12892976, “Alkylation-based optimization of antifungal FPPS inhibitors yields a potent, broad-spectrum lipophilic zoledronate derivative” (mBio, 2025):
# Read-outs that look alike come from different tables or passages of the source.
# Legend:
# Saccharomyces cerevisiae [1] = test: MIC/MFC broth microdilution (CLSI); format: cell-based; details: Saccharomyces cerevisiae S288c
# Method: (§1) Antifungal susceptibility was determined by broth microdilution according to the CLSI guidelines described in M27-Ed4 ([16]). […] MFC was determined by back-plating drug-treated cultures from MIC broths onto SDA plates. The MFC was defined as the lowest concentration from which no colonies could be cultured.
# Candida albicans [2] = test: MIC/MFC broth microdilution (CLSI); format: cell-based; details: Candida albicans SC5314
# Method: as §1
# [3] = tested on: Cryptococcus deuterogattii; test: checkerboard drug interaction (FICI, MICc);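 on all read-outs here: simplified diagonal checkerboard screen pairing antifungal drugs with FPPS inhibitors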; format: cell-based; details: C. deuterogattii; for INH FD (MIC-MICc fold decrease): fold decrease of inhibitor MIC
# Method: (§2) Drug interactions between antifungals and FPPS inhibitors were investigated using a simplified checkerboard diagonal screening method ([45]). […] FICIs were determined according to the Loewe additivity model ([17]).
# Cryptococcus neoformans [4] = test: checkerboard drug interaction (FICI, MICc);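 on all read-outs here: antifungal plus FPPS inhibitor pairs tested against Cryptococcus neoformans by simplified diagonal checkerboard screening, FICI computed under the Loewe additivity model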; format: cell-based; details: C. neoformans; for INH FD (MIC-MICc fold decrease): fold decrease of inhibitor MIC
# Method: as §2
# Saccharomyces cerevisiae [5] = test: checkerboard drug interaction (FICI, MICc); format: cell-based; design: INH MICc / INH MICc (ITR:INH) / INH MICc (KET:INH) / INH MICc (FLC:INH): unit not given beside the values;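 further: simplified diagonal checkerboard screen pairing antifungals with FPPS inhibitors, FICI calculated under the Loewe additivity model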
# Candida glabrata [6] = test: checkerboard drug interaction (FICI, MICc);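 on all read-outs here: simplified diagonal checkerboard screen pairing antifungals with FPPS inhibitors, FICI calculated under the Loewe additivity model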; format: cell-based; details: C. glabrata; for INH FD (MIC-MICc fold decrease): fold decrease of inhibitor MIC
# Method: as §2
# Candida albicans [7] = test: checkerboard drug interaction (FICI, MICc);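 on all read-outs here: antifungal plus FPPS inhibitor combinations on Candida albicans tested by a simplified diagonal checkerboard screen, with FICI calculated under the Loewe additivity model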; format: cell-based; details: C. albicans; for INH FD (MIC-MICc fold decrease): fold decrease of inhibitor MIC
# Method: as §2
# Aspergillus flavus [8] = test: checkerboard drug interaction (FICI, MICc);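 further: simplified diagonal checkerboard screen pairing azole antifungals with FPPS inhibitors, FICI calculated under the Loewe additivity model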; format: cell-based; design: INH MICc (KET:INH) / INH MICc (FLC:INH): unit not given beside the values; details: A. flavus
# Aspergillus fumigatus [9] = test: checkerboard drug interaction (FICI, MICc); format: cell-based;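 further: simplified diagonal checkerboard screen pairing antifungals with FPPS inhibitors against Aspergillus fumigatus, with FICI calculated under the Loewe additivity model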
# Method: as §2
# Trichophyton rubrum [10] = test: checkerboard drug interaction (FICI, MICc);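 further: simplified diagonal checkerboard screen pairing azole antifungals with FPPS inhibitors, FICI calculated under the Loewe additivity model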; format: cell-based; details: T. rubrum
# Method: as §2
# HEK-293T cells = test: MTT reduction cytotoxicity assay; format: cell-based; details: Homo sapiens, HEK-293T, 72 h, MTT, 72 h
# eight fungal species [11] = test: MIC/MFC summary across the eight fungal species of Table 1; format: cell-based
# Method: The antifungal activity of these compounds was evaluated according to CLSI guidelines ([16]).
# eight fungal species [12] = test: checkerboard interaction with azoles, summary across the eight species; format: cell-based; details: geometric mean MIC in combination with azoles
# Description: Synergy between lipophilic FPPS inhibitors and azole antifungals was investigated by determining the fractional inhibitory concentration index (FICI) (Fig. 2; Table S1 Fig. S1) ([17]). […]. Derivatives PLA9 and 11, and PDA9, 11, and 12 antagonized azoles in C. albicans, C. neoformans, and C. deuterogattii, yet were largely synergistic in C. glabrata and S. cerevisiae. […].
# [13] = tested on: Cryptococcus deuterogattii; test: MIC/MFC broth microdilution (CLSI); details: Cryptococcus deuterogattii;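 further: broth microdilution per CLSI M27-Ed4. MFC is the lowest concentration yielding no colonies when MIC broths are subcultured onto SDA plates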
# Method: as §1
# Cryptococcus neoformans [14] = test: MIC/MFC broth microdilution (CLSI); details: Cryptococcus neoformans;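 further: susceptibility testing followed the CLSI M27-Ed4 broth microdilution document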
# Method: as §1
# Candida glabrata [15] = test: MIC/MFC broth microdilution (CLSI); details: Nakaseomyces glabratus, CBS138;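 further: broth microdilution following CLSI M27-Ed4, MFC taken as the lowest drug level yielding no growth once MIC wells were subcultured on SDA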
# Method: as §1
# Aspergillus flavus [16] = test: MIC/MFC broth microdilution (CLSI); details: ATCC204304
# Method: as §1
# Aspergillus fumigatus [17] = test: MIC/MFC broth microdilution (CLSI); details: ATCC204305
# Method: as §1
# Trichophyton rubrum [18] = test: MIC/MFC broth microdilution (CLSI); details: Trichophyton rubrum
# Method: as §1
# [19] = FLC:INH combination, MIC of the inhibitor in combination with FLC
# [20] = FLC:INH combination, fold decrease of FLC MIC
# [21] = ITR:INH combination, MIC of the inhibitor in combination with ITR
# [22] = ITR:INH combination, fold decrease of ITR MIC
# [23] = KET:INH combination, MIC of the inhibitor in combination with KET
# [24] = KET:INH combination, fold decrease of KET MIC
# [25] = Fractional Inhibitory Concentration Index, fluconazole + inhibitor
# [26] = Fractional Inhibitory Concentration Index, itraconazole + inhibitor
# [27] = Fractional Inhibitory Concentration Index, ketoconazole + inhibitor
# [28] = MIC of the inhibitor in combination with fluconazole
# [29] = MIC of the inhibitor in combination with itraconazole
# [30] = MIC of the inhibitor in combination with ketoconazole
# [31] = MIC-MICc fold decrease of fluconazole, negative = increase
# [32] = MIC-MICc fold decrease of itraconazole, negative = increase
# [33] = MIC-MICc fold decrease of ketoconazole, negative = increase
# [34] = MIC-MICc fold decrease of the inhibitor, with fluconazole
# [35] = MIC-MICc fold decrease of the inhibitor, with itraconazole
# [36] = MIC-MICc fold decrease of the inhibitor, with ketoconazole
smiles,measurement,setting,value
CCCCCCCCCCCN1CCC[C@H]1C(=O)N[C@H](CC(=O)OC)C(=O)OC [dmPDA11],MFC,Saccharomyces cerevisiae [1],128 µg/mL
same,MIC,Saccharomyces cerevisiae [1],64 µg/mL
same,MFC,Candida albicans [2],> 128 µg/mL
same,MIC,Candida albicans [2],> 128 µg/mL
same,FICI,[3]; FLC:INH combination,1.5
same,INH MICc,[3]; [19],32
same,FLC FD (MIC-MICc fold decrease),[3]; [20],2
same,INH FD (MIC-MICc fold decrease),[3]; FLC:INH combination,1
same,FICI,[3]; ITR:INH combination,2
same,INH MICc,[3]; [21],32
same,ITR FD (MIC-MICc fold decrease),[3]; [22],1
same,INH FD (MIC-MICc fold decrease),[3]; ITR:INH combination,1
same,FICI,[3]; KET:INH combination,1.13
same,INH MICc,[3]; [23],32
same,KET FD (MIC-MICc fold decrease),[3]; [24],8
same,INH FD (MIC-MICc fold decrease),[3]; KET:INH combination,1
same,FICI,Cryptococcus neoformans [4]; FLC:INH combination,1.5
same,INH MICc,Cryptococcus neoformans [4]; [19],32
same,FLC FD (MIC-MICc fold decrease),Cryptococcus neoformans [4]; [20],1
same,INH FD (MIC-MICc fold decrease),Cryptococcus neoformans [4]; FLC:INH combination,2
same,FICI,Cryptococcus neoformans [4]; ITR:INH combination,0.75
same,INH MICc,Cryptococcus neoformans [4]; [21],16
same,ITR FD (MIC-MICc fold decrease),Cryptococcus neoformans [4]; [22],2
same,INH FD (MIC-MICc fold decrease),Cryptococcus neoformans [4]; ITR:INH combination,4
same,FICI,Cryptococcus neoformans [4]; KET:INH combination,3
same,INH MICc,Cryptococcus neoformans [4]; [23],64
same,KET FD (MIC-MICc fold decrease),Cryptococcus neoformans [4]; [24],-2
same,INH FD (MIC-MICc fold decrease),Cryptococcus neoformans [4]; KET:INH combination,1
same,FICI (FLC:INH),Saccharomyces cerevisiae [5]; [25],≥4
same,FICI (ITR:INH),Saccharomyces cerevisiae [5]; [26],2
same,FICI (KET:INH),Saccharomyces cerevisiae [5]; [27],1.25
same,INH MICc (FLC:INH),Saccharomyces cerevisiae [5]; [28],256
same,INH MICc (ITR:INH),Saccharomyces cerevisiae [5]; [29],64
same,INH MICc (KET:INH),Saccharomyces cerevisiae [5]; [30],64
same,FLC FD (FLC:INH),Saccharomyces cerevisiae [5]; [31],-2
same,ITR FD (ITR:INH),Saccharomyces cerevisiae [5]; [32],1
same,KET FD (KET:INH),Saccharomyces cerevisiae [5]; [33],4
same,INH FD (FLC:INH),Saccharomyces cerevisiae [5]; [34],-4
same,INH FD (ITR:INH),Saccharomyces cerevisiae [5]; [35],1
same,INH FD (KET:INH),Saccharomyces cerevisiae [5]; [36],1
same,FICI,Candida glabrata [6]; FLC:INH combination,≥4
same,INH MICc,Candida glabrata [6]; [19],32
same,FLC FD (MIC-MICc fold decrease),Candida glabrata [6]; [20],-2
same,INH FD (MIC-MICc fold decrease),Candida glabrata [6]; FLC:INH combination,1
same,FICI,Candida glabrata [6]; ITR:INH combination,1
same,INH MICc,Candida glabrata [6]; [21],4
same,ITR FD (MIC-MICc fold decrease),Candida glabrata [6]; [22],2
same,INH FD (MIC-MICc fold decrease),Candida glabrata [6]; ITR:INH combination,8
same,FICI,Candida glabrata [6]; KET:INH combination,2
same,INH MICc,Candida glabrata [6]; [23],8
same,KET FD (MIC-MICc fold decrease),Candida glabrata [6]; [24],1
same,INH FD (MIC-MICc fold decrease),Candida glabrata [6]; KET:INH combination,4
same,FICI,Candida albicans [7]; FLC:INH combination,1.06
same,INH MICc,Candida albicans [7]; [19],8
same,FLC FD (MIC-MICc fold decrease),Candida albicans [7]; [20],1
same,INH FD (MIC-MICc fold decrease),Candida albicans [7]; FLC:INH combination,16
same,FICI,Candida albicans [7]; ITR:INH combination,1.06
same,INH MICc,Candida albicans [7]; [21],8
same,ITR FD (MIC-MICc fold decrease),Candida albicans [7]; [22],1
same,INH FD (MIC-MICc fold decrease),Candida albicans [7]; ITR:INH combination,16
same,FICI,Candida albicans [7]; KET:INH combination,1.06
same,INH MICc,Candida albicans [7]; [23],8
same,KET FD (MIC-MICc fold decrease),Candida albicans [7]; [24],1
same,INH FD (MIC-MICc fold decrease),Candida albicans [7]; KET:INH combination,16
same,FICI (FLC:INH),Aspergillus flavus [8]; [25],0.75
same,FICI (ITR:INH),Aspergillus flavus [8]; [26],1.01
same,FICI (KET:INH),Aspergillus flavus [8]; [27],0.31
same,INH MICc (FLC:INH),Aspergillus flavus [8]; [28],64
same,INH MICc (ITR:INH),Aspergillus flavus [8]; [29],2
same,INH MICc (KET:INH),Aspergillus flavus [8]; [30],16
same,FLC FD (FLC:INH),Aspergillus flavus [8]; [31],2
same,ITR FD (ITR:INH),Aspergillus flavus [8]; [32],1
same,KET FD (KET:INH),Aspergillus flavus [8]; [33],4
same,INH FD (FLC:INH),Aspergillus flavus [8]; [34],4
same,INH FD (ITR:INH),Aspergillus flavus [8]; [35],128
same,INH FD (KET:INH),Aspergillus flavus [8]; [36],16
same,FICI (FLC:INH),Aspergillus fumigatus [9]; [25],1.25
same,FICI (ITR:INH),Aspergillus fumigatus [9]; [26],0.53
same,FICI (KET:INH),Aspergillus fumigatus [9]; [27],3
same,INH MICc (FLC:INH),Aspergillus fumigatus [9]; [28],64
same,INH MICc (ITR:INH),Aspergillus fumigatus [9]; [29],2
same,INH MICc (KET:INH),Aspergillus fumigatus [9]; [30],128
same,FLC FD (FLC:INH),Aspergillus fumigatus [9]; [31],4
same,ITR FD (ITR:INH),Aspergillus fumigatus [9]; [32],2
same,KET FD (KET:INH),Aspergillus fumigatus [9]; [33],1
same,INH FD (FLC:INH),Aspergillus fumigatus [9]; [34],1
same,INH FD (ITR:INH),Aspergillus fumigatus [9]; [35],32
same,INH FD (KET:INH),Aspergillus fumigatus [9]; [36],-2
same,FICI (FLC:INH),Trichophyton rubrum [10]; [25],≥4
same,FICI (ITR:INH),Trichophyton rubrum [10]; [26],2.13
same,FICI (KET:INH),Trichophyton rubrum [10]; [27],≥4
same,INH MICc (FLC:INH),Trichophyton rubrum [10]; [28],64
same,INH MICc (ITR:INH),Trichophyton rubrum [10]; [29],32
same,INH MICc (KET:INH),Trichophyton rubrum [10]; [30],128
same,FLC FD (FLC:INH),Trichophyton rubrum [10]; [31],2
same,ITR FD (ITR:INH),Trichophyton rubrum [10]; [32],8
same,KET FD (KET:INH),Trichophyton rubrum [10]; [33],1
same,INH FD (FLC:INH),Trichophyton rubrum [10]; [34],-4
same,INH FD (ITR:INH),Trichophyton rubrum [10]; [35],-2
same,INH FD (KET:INH),Trichophyton rubrum [10]; [36],< -4
same,IC50,"HEK-293T cells; HEK-293T cells, read-out: IC50",6.19 µg/mL
same,IC50,HEK-293T cells; read-out: HEK IC50,6.19 µg/mL
same,MFC,"eight fungal species [11]; across eight species, read-out: Geometric mean MFC",140 µg/mL
same,MIC,"eight fungal species [11]; geometric mean across eight species, read-out: GM fungal MIC",69.8 µg/mL
same,MIC,eight fungal species [11]; read-out: Geometric mean MIC,69.8 µg/mL
same,GM fungal MICc,eight fungal species [12],25.4
same,MFC,[13],128 µg/mL
same,MIC,[13],16 µg/mL
same,MFC,Cryptococcus neoformans [14],32 µg/mL
same,MIC,Cryptococcus neoformans [14],16 µg/mL
same,MFC,Candida glabrata [15],128 µg/mL
same,MIC,Candida glabrata [15],128 µg/mL
same,MFC,Aspergillus flavus [16],> 128 µg/mL
same,MIC,Aspergillus flavus [16],> 128 µg/mL
same,MFC,Aspergillus fumigatus [17],128 µg/mL
same,MIC,Aspergillus fumigatus [17],> 128 µg/mL
same,MFC,Trichophyton rubrum [18],> 128 µg/mL
same,MIC,Trichophyton rubrum [18],16 µg/mL
